Results published in patent US10620188B2, “Using impedance-based cell response profiling to identify putative inhibitors for oncogene addicted targets or pathways” (ACEA Biosciences, Inc., priority 2002, dated 2020).
Like-named read-outs stand apart in the source and are kept apart here.

How the values were obtained:
10T1/2 tva-H1047R = assay: Impedance-based TCRP of 10T1/2 tva-H1047R cells expressing human p110α (H1047R); type: cell-based, mouse; conditions: 10T1/2 tva-H1047R; serum starved; from 0 to 10 uM
Description: (§1) Cells were serum starved for 5 hour. The cell index was normalized at time of compound addition. At the indicated time point of treatment, increasing concentrations of PI103 (0-10 uM) was added to the cells and the cell responses were monitored.
(§2) The cell index (CI) was normalized at time of compound addition.
A mouse fibroblast 10T1/2 expressing the cell-surface receptor TVA, which is specific for subgroup-A avian retroviruses was used. […] A549 is a human lung cancer cell line expressing wild-type p110α. T47D and BT20 are human breast cancer cell lines expressing mutant p110α (T47D) and p110α (P539R/H1047R), respectively.
(§3) Then the normal growth medium (10% FBS) was exchanged with medium containing 0% FBS. The cells were incubated for additional 5 hours before compound treatment. A PI3K inhibitor (PI103) at different concentrations in DMSO was added into wells following the incubation period. The cell status was monitored prior to and after the compound addition using xCelligence system (Roche applied sciences). […] Cell index of the cells treated with solvent DMSO control was used as baseline. The Cell index was normalized against the cell index values at a time point just before compound addition.

10T1/2 tva = assay: Impedance-based TCRP of control cell line 10T1/2 tva; set-up: species or system mouse; conditions: 10T1/2 tva control cell line; from 0 to 10 uM
Description: as §1, §2
A mouse fibroblast 10T1/2 expressing the cell-surface receptor TVA, which is specific for subgroup-A avian retroviruses was used.
as §3

H1993 = assay: Impedance-based TCRP of Met addicted H1993 cells (xCelligence); type: cell-based, human; conditions: for TCRP (Cell Index response): increasing concentrations; for IC50: read-out: IC50 (TCRP)
Description: (§4) The cell index was normalized at time of compound addition.
Cells were treated with ACEA348 (0-10 uM) for 30 min.
as §2
The time-dependent cell response profiles (TCRP) were monitored prior to and after the compound addition using the xCelligence system (ACEA Biosciences/Roche applied sciences).
The Cell index was normalized against the cell index values at a time point just before compound addition. […] EC50 and IC50 of the Met inhibitor can be derived from the CI versus the corresponding log concentration of the inhibitor.

C6 = assay: Impedance-based TCRP of PDGFR addicted C6 glioma cells; type: cell-based, rat; conditions: Rattus norvegicus; C6; Long-term (96 hours post compound treatment) CI; read-out: IC50 (TCRP)
Description: as §2
Kinase inhibitors including PDGFR inhibitors at different concentrations in DMSO were added into wells following the incubation period. The cell status was monitored prior to and after the compound addition using xCelligence system (Roche applied sciences). […] The Cell index was normalized against the cell index values at a time point just before compound addition.
IC50 of the PDGFR inhibitor can be derived from the CI versus the corresponding log concentration of the inhibitor.

PDGFRβ = target: T1, PDGFRβ (Rattus norvegicus, UniProt Q05030); assay: Western analysis of PDGFR signaling pathway in C6 cells; type: cell-based
T1 construct: endogenous in cells; host or cells: C6 rat glioma cells
T1 sequence (Q05030 32-1097): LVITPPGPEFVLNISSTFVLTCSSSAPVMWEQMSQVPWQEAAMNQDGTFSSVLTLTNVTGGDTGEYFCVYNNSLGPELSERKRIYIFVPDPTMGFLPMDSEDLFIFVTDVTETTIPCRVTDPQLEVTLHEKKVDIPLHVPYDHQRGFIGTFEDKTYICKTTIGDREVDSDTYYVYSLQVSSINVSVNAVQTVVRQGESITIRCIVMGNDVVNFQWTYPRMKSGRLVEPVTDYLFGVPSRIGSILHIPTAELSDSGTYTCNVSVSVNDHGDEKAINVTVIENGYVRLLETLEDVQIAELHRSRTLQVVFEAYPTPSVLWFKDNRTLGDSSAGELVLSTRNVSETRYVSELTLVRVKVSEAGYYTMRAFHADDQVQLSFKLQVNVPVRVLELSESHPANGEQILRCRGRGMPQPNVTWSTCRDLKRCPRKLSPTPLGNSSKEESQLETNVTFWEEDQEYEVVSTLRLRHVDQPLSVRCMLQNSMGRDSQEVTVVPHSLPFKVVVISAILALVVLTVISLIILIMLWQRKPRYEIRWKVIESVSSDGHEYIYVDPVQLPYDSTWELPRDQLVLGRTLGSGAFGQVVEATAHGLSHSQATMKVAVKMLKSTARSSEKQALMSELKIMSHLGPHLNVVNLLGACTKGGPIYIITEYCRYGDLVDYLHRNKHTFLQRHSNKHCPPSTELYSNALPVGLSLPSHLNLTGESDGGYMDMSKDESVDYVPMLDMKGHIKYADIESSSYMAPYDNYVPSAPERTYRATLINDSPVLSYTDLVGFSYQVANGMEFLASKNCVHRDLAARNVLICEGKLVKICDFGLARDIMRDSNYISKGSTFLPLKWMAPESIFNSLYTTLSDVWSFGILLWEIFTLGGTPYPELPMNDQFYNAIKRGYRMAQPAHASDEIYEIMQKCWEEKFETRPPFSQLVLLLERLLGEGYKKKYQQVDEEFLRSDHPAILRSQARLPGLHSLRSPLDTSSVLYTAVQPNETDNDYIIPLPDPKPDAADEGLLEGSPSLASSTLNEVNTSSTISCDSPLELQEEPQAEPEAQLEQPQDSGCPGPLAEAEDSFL

A431 [1] = assay: Impedance-based TCRP of A431 cells, constitutive EGFR activation; type: cell-based; conditions: for IC50: Homo sapiens, read-out: IC50 (TCRP, constitutive activation)
Description: as §2
A431 cells were seeded into wells of 96 well E-plate devices (Roche applied sciences) with an initial seeding density of 20,000 cells per well and were pre-incubated in incubator with DMEM medium plus 2% FBS over night. […] DMSO at the same dose was served as solvent control. […] The IC50s derived from this experiment evaluate the inhibition of these inhibitors to this basal activation of EGFR (caused by dimerization without EGF stimulation)

A431 [2] = assay: EGF-stimulated CI increase in A431 cells; type: cell-based; conditions: Homo sapiens
Description: A431 cells were seeded at 20,000 cells per well of 96-well E-plate (Roche/ACEA) with 2% fetal bovine serum. The cells were continuously monitored using xCelligence system (Roche/ACEA). […] The cell index was normalized at time of EGF addition.
To further evaluate the efficacies of these EFGR inhibitors, we tested the inhibitory effect of these inhibitors on the EGF stimulated response using impedance-based technology (FIG. 15). In this experiment, A431 cells were seeded at 20,000 cells per well of 96-well E-plate (Roche/ACEA) with 2% fetal bovine serum. The cells were continuously monitored using xCelligence system (Roche/ACEA). […] The cell index was normalized at time of EGF addition.

H1975 [3] = assay: Impedance-based TCRP of H1975 cells, constitutive EGFR activation; type: cell-based; conditions: for IC50: Homo sapiens, read-out: IC50 (TCRP, constitutive activation)
Description: as §2
H1975 cells were seeded at 3,000 cells per well of 96-well E-plate (Roche/ACEA) in RPMI1640 medium with 1% fetal bovine serum. […] The cell index (CI) was normalized at time of compound addition.

H1975 [4] = assay: EGF-stimulated CI increase in H1975 cells; type: cell-based; conditions: Homo sapiens
SH-SY5Y = assay: Impedance-based TCRP of SH-SY5Y cells, mutant ALK (F1174L); type: cell-based, human; conditions: for IC50: mutant ALK (F1174L), long-term (72 hours post compound treatment) CI
Excerpt: as §4
The cell index (CI) was normalized at time of compound addition. […] DMSO was served as solvent control.
The cell index was normalized at time of compound addition. DMSO at the same dose was served as solvent control.
as §2

HCC827 = assay: Impedance-based TCRP of HCC827 cells, mutant EGFR (Del E746_A750); type: cell-based; conditions: Homo sapiens, HCC827, 96 h, read-out: IC50 (TCRP)
Description: as §2
Kinase inhibitors including EGFR inhibitors at different concentrations in DMSO were added into wells following the incubation period. The cell status was monitored prior to and after the compound addition using xCelligence system (Roche applied sciences). The Cell index was normalized against the cell index values at a time point just before compound addition.

[5] = NCI-H1975, H1975, inhibitor 1 hour, then EGF 30 ng/ml, Normalized Cell Index at 30 minutes after EGF, estimated, read-out: IC50 (TCRP, ligand stimulated)

Molecule	TCRP (Cell Index response) (10T1/2 tva-H1047R)	TCRP (Cell Index response) (10T1/2 tva)	TCRP (Cell Index response) (H1993; H1993)	also measured
CN[C@@H]1C[C@H]2O[C@@](C)([C@@H]1OC)n1c3ccccc3c3c4c(c5c6ccccc6n2c5c31)C(=O)NC4 [Staurosporine]	cell index decreases in both the control cell line and H1047R cell line	cell index decreases in both the control cell line and H1047R cell line		
COc1cccc(-c2cc(=O)c3ccccc3o2)c1N [PD98059]	did not introduce significant cell index changes in either cell line	did not introduce significant cell index changes in either cell line	None of these inhibitors induced a TCRP similar to PF2341006	
CCN(CC)CCNC(=O)c1c(C)[nH]c(/C=C2\C(=O)Nc3ccc(F)cc32)c1C [Sunitinib]				IC50 (C6): 0.0422 µM
O=c1[nH]c2ccccc2n1C1CCN(Cc2ccc(-c3nc4cc5[nH]cnc5cc4nc3-c3ccccc3)cc2)CC1 [AKT inhibitor VIII]	cell index decreases in both the control cell line and H1047R cell line	cell index decreases in both the control cell line and H1047R cell line	None of these inhibitors induced a TCRP similar to PF2341006	
Cn1c(=O)n(-c2ccc(C(C)(C)C#N)cc2)c2c3cc(-c4cnc5ccccc5c4)ccc3ncc21 [BEZ235]	triggered 10T1/2-tva-H1047R specific cell index drop	not present in the control cell line 10T1/2-tva	None of these inhibitors induced a TCRP similar to PF2341006	
CN([C@@H](Cc1ccc(OS(=O)(=O)c2cccc3cnccc23)cc1)C(=O)N1CCN(c2ccccc2)CC1)S(=O)(=O)c1cccc2cnccc12 [CaM kinase inhibitor]	did not introduce significant cell index changes in either cell line	did not introduce significant cell index changes in either cell line		
COc1ccc(-c2ccc3c(N4CCOCC4)nc(N4C[C@@H](C)O[C@@H](C)C4)nc3n2)cc1CO [KU0063794]	triggered 10T1/2-tva-H1047R specific cell index drop	not present in the control cell line 10T1/2-tva	None of these inhibitors induced a TCRP similar to PF2341006	
CO[C@H]1C[C@@H]2CC[C@@H](C)[C@@](O)(O2)C(=O)C(=O)N2CCCC[C@H]2C(=O)O[C@H]([C@H](C)C[C@@H]2CC[C@@H](OC(=O)C(C)(CO)CO)[C@H](OC)C2)CC(=O)[C@H](C)/C=C(\C)[C@@H](O)[C@@H](OC)C(=O)[C@H](C)C[C@H](C)/C=C/C=C/C=C/1C [Temsirolimus]	triggered 10T1/2-tva-H1047R specific cell index drop	not present in the control cell line 10T1/2-tva		
Cc1ccc(NC(=O)c2ccc(CN3CCN(C)CC3)cc2)cc1Nc1nccc(-c2cccnc2)n1 [Imatinib]				phospho-MAPK (Western) (PDGFRβ; downstream target of PDGFR): down-regulated; PDGFRβ autophosphorylation (Western) (PDGFRβ; phospho-PDGFRβ (Y1021)): effectively inhibited
C=CC(=O)Nc1cccc(Oc2nc(Nc3ccc(N4CCN(C)CC4)cc3OC)ncc2Cl)c1 [WZ4002]				IC50 (A431 [1]; A-431, A431 (wild-type EGFR), Long-term (72 hours post compound treatment) CI): 4.37 µM; IC50 (A431 [2]; A-431, A431, inhibitor 1 hour, then EGF 30 ng/ml, Normalized Cell Index at 30 minutes after EGF, estimated, read-out: IC50 (TCRP, ligand stimulated)): ~2 µM; IC50 (H1975 [3]; NCI-H1975, H1975 (mutant L858R/T790M EGFR), 72 hours post compound treatment): 0.56 µM; IC50 (H1975 [4]; [5]): ~1.25 µM
AKT inhibitor IV			None of these inhibitors induced a TCRP similar to PF2341006	
CN(C)C/C=C/C(=O)Nc1cc2c(Nc3ccc(F)c(Cl)c3)ncnc2cc1O[C@H]1CCOC1 [BIBW2992]				IC50 (H1975 [4]; NCI-H1975, read-out: IC50 (TCRP, ligand stimulated)): ~0.2 µM
C[C@@H](Oc1cc(-c2cnn(C3CCNCC3)c2)cnc1N)c1c(Cl)ccc(F)c1Cl [PF02341066, Crizotinib]				IC50 (H1993; Homo sapiens, NCI-H1993, 200 h): 0.00323 µM; EC50 (H1993; Homo sapiens, NCI-H1993, H1993, short-term (10 hours post compound treatment) CI): 0.002 µM; IC50 (H1993): 0.00187 µM
CC[C@]1(O)C[C@H]2CN(CCc3c([nH]c4ccccc34)[C@@](C(=O)OC)(c3cc4c(cc3OC)N(C=O)[C@H]3[C@@](O)(C(=O)OC)[C@H](OC(C)=O)[C@]5(CC)C=CCN6CC[C@]43[C@@H]65)C2)C1 [vincristine]	cell index decreases in both the control cell line and H1047R cell line	cell index decreases in both the control cell line and H1047R cell line		
O=c1cc(CN2CCOCC2)occ1OCCCCCSc1ccnc2cc(C(F)(F)F)ccc12 [EHT1864]			None of these inhibitors induced a TCRP similar to PF2341006	
C=CC(=O)Nc1cc2c(Nc3ccc(F)c(Cl)c3)ncnc2cc1OCCCN1CCOCC1 [Canertinib]				TCRP (Cell Index response) (A431 [1]; A431, from 0 to 20 uM): dose-dependent short-term and long-term decrease in Cell Index; IC50 (A431 [1]; A-431, 72 h): 0.357 µM; IC50 (A431 [2]; A-431, read-out: IC50 (TCRP, ligand stimulated)): < 0.027 µM; TCRP (Cell Index response) (H1975 [3]; H1975, from 0 to 20 uM): dose-dependent short-term and long-term decrease in Cell Index; IC50 (H1975 [3]; NCI-H1975, 72 h): 0.396 µM; IC50 (H1975 [4]; [5]): ~0.15 µM
COc1cc(N2CCC(N3CCN(C)CC3)CC2)ccc1Nc1ncc(Cl)c(Nc2ccccc2S(=O)(=O)C(C)C)n1 [NVP-TAE684]				IC50 (SH-SY5Y; Homo sapiens): 0.0104 µM
O=C1Nc2ccc(I)cc2/C1=C/c1cc(Br)c(O)c(Br)c1 [GW5074]	cell index decreases in both the control cell line and H1047R cell line	cell index decreases in both the control cell line and H1047R cell line	None of these inhibitors induced a TCRP similar to PF2341006	
C[S+]([O-])c1ccc(-c2nc(-c3ccncc3)c(-c3ccc(F)cc3)[nH]2)cc1 (stereo not shown) [SB203580]			None of these inhibitors induced a TCRP similar to PF2341006	
CNC(=O)c1c(F)cccc1Nc1nc(Nc2cc3c(cc2OC)CCN3C(=O)CN(C)C)nc2[nH]ccc12 [GSK1838705A]				IC50 (SH-SY5Y): 0.137 µM
Oc1ccc(-c2nc(-c3ccncc3)c(-c3ccc(F)cc3)[nH]2)cc1 [SB202190]	did not introduce significant cell index changes in either cell line	did not introduce significant cell index changes in either cell line	None of these inhibitors induced a TCRP similar to PF2341006	
N#CC(=C(/N)Sc1ccccc1N)/C(C#N)=C(\N)Sc1ccccc1N [U0126]	did not introduce significant cell index changes in either cell line	did not introduce significant cell index changes in either cell line	None of these inhibitors induced a TCRP similar to PF2341006	
COC(=O)[C@@]1(OC)C[C@H]2O[C@]1(C)n1c3ccccc3c3c4c(c5c6ccccc6n2c5c31)C(=O)N(C)C4 [KT5823]	did not introduce significant cell index changes in either cell line	did not introduce significant cell index changes in either cell line		
COc1cc2ncnc(Nc3cccc(Cl)c3)c2cc1OC [AG1478]				TCRP (Cell Index response) (SH-SY5Y; 10 uM): None trigged a TCRP representative to that trigger by ALK inhibitors
CS(=O)(=O)CCNCc1ccc(-c2ccc3ncnc(Nc4ccc(OCc5cccc(F)c5)c(Cl)c4)c3c2)o1 [Lapatinib]				IC50 (HCC827): 0.0388 µM
CCCCCCOC(=O)[C@]1(O)C[C@@H]2O[C@@]1(C)n1c3ccccc3c3c4c(c5c6ccccc6n2c5c31)C(=O)NC4 [KT5720]	did not introduce significant cell index changes in either cell line	did not introduce significant cell index changes in either cell line		
CC1=C(C(=O)Nc2cc3cn[nH]c3cc2F)C(c2ccc(C(F)(F)F)cc2)CC(=O)N1 (stereo not shown) [GSK429286]			None of these inhibitors induced a TCRP similar to PF2341006	
